Reference: patent US20190031665A1, “DERIVATIVES OF PYRROLOIMIDAZOLE OR ANALOGUES THEREOF WHICH ARE USEFUL FOR THE TREATMENT OF INTER ALIA CANCER” (EMCURE PHARMACEUTICALS LIMITED, priority 2016, published 2019)

Experiments:
[1] = target: T1, human tryptophan 2,3-dioxygenase (hTDO) (Homo sapiens, UniProt P48775); test: In-vitro human tryptophan 2,3-dioxygenase (TDO) enzyme assay; format: biochemical; conditions: for inhibition at 10 µM: hTDO enzyme at 10.0 μM concentration; for inhibition at 1 µM: hTDO enzyme at 1.0 μM concentration
T1 construct: His tag (N); purchased BPS Bioscience, San Diego, Calif., USA; host or cells: E. coli
Procedure: (§1) In the in-vitro human tryptophan 2,3-dioxygenase (hTDO) enzyme assay for screening inhibitor compounds, hTDO with an N-terminal histidine tag expressed and purified from E. coli (BPS Bioscience, San Diego, Calif., USA) was used. All other materials were procured from Sigma-Aldrich, St. Louis, Mo., USA.
The assay monitoring method for the conversion of L-tryptophan to N-formylkynurenine by hTDO was carried out as follows. hTDO (125 ng) was incubated in the presence of 200 μM L-tryptophan, 100 mM sodium phosphate buffer (pH 7.0), 0.01% Tween-20 and 100 μM ascorbic acid at about 37° C. for about 60 minutes. The reaction was terminated with 200 mM piperidine (PIP) and further incubated at about 65° C. for about 20 minutes to convert N-formylkynurenine (NFK) to NFK-PIP. The reaction mixture was then incubated at room temperature for about 75 minutes. The fluorescence intensity was read in a fluorescence microplate reader at an excitation wavelength of 400 nm and emission wavelength of 500 nm. Percent inhibition at each concentration of test compounds was determined by estimating the decrease in NFK-PIP. Data were analyzed using nonlinear regression to generate IC50 values using Graph Pad Prism® 6.

[2] = target: T2, human indoleamine 2,3-dioxygenase 1 (hIDO1) (Homo sapiens, UniProt P14902); test: In-vitro human indoleamine 2,3-dioxygenase 1 (IDO1) enzyme assay; format: biochemical; conditions: for inhibition at 10 µM: hIDO1 enzyme at 10.0 μM concentration; for inhibition at 1 µM: hIDO1 enzyme at 1.0 μM concentration; for IC50: hIDO1 enzyme
T2 construct: His tag (N); purchased BPS Bioscience, San Diego, Calif., USA; host or cells: E. coli
Procedure: as §1, with “In-vitro human indoleamine 2,3-dioxygenase 1 (IDO1) enzyme assay: In” for “In”, “indoleamine” for “tryptophan”, “1 (hIDO1)” for “(hTDO)”, “hIDO1” for “hTDO”
The assay method for monitoring the conversion of L-tryptophan to N-formylkynurenine by hlDO1 was carried out as follows. hlDO1 (50 ng) was incubated with tryptophan (80 μM) in the presence of ascorbic acid (10 mM), methylene blue (10 μM), catalase (100 μg/ml) and 0.01% Tween-20 in sodium phosphate buffer (50 mM; pH 6.5) at 37° C. for 60 min. The reaction was terminated with 200 mM piperidine (PIP) and further incubated at about 65° C. for about 20 minutes to convert N-formylkynurenine (NFK) to NFK-PIP. The reaction mixture was then incubated at room temperature for about 1 hour. The fluorescence intensity was read in a fluorescence microplate reader at an excitation wavelength of 400 nm and emission wavelength of 500 nm. Percent inhibition at each concentration of test compounds was determined by estimating the decrease in NFK-PIP. Data were analyzed using nonlinear regression to generate IC50 values using Graph Pad Prism® 6.

T1 sequence (P48775 whole entry): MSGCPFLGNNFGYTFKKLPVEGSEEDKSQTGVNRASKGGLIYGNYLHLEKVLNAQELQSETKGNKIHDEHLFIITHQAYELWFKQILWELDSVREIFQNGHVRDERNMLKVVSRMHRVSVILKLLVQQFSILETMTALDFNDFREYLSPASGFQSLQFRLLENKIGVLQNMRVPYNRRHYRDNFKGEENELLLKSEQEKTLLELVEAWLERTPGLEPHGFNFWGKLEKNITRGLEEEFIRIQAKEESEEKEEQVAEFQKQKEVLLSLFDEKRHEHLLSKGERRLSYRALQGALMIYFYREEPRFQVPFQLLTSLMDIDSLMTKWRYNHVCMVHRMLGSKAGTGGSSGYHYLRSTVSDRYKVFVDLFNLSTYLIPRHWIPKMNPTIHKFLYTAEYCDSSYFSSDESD
T2 sequence (P14902 whole entry): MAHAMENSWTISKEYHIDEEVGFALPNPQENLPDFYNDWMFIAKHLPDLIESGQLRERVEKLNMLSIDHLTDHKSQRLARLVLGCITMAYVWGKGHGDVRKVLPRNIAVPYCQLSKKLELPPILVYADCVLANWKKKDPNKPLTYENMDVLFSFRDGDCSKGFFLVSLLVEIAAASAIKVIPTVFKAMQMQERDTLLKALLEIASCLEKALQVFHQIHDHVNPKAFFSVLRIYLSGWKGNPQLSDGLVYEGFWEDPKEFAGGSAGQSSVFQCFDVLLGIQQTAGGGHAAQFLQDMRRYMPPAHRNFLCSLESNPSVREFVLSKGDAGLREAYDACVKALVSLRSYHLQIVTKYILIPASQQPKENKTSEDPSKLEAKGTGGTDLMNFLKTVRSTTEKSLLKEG

| SMILES | inhibition at 10 µM [1] [%] | inhibition at 10 µM [2] [%] | inhibition at 1 µM [1] [%] | inhibition at 1 µM [2] [%] | IC50 [2] [nM] |
| --- | --- | --- | --- | --- | --- |
| OC(CC1C2=C(CCCC2)c2cncn21)c1cc(F)ccc1F (stereo not drawn) [Example 10] | ≥ 50 | ≤ 50 |  |  |  |
| CC1=C(c2ccccc2)C(CC(O)c2ccc(Br)cc2)n2cncc21 (stereo not drawn) [Example 52, 1-(4-bromophenyl)-2-(7-methyl-6-phenyl-5H-pyrrolo[1,2-c]imidazol-5-yl)ethan-1-ol] |  | ≥ 50 | ≥ 50 | ≤ 50 |  |
| CC1=C(c2ccccc2)C(CC(O)C2CCC(c3ccccc3)CC2)n2cncc21 (stereo not drawn) [Example 186] |  | ≥ 50 | ≤ 50 | ≥ 50 | < 500 |
| CC1=C(c2ccccc2)C(CC(O)[C@H]2CC[C@H](C(=O)N[C@H]3CC[C@H](O)CC3)CC2)n2cncc21 (stereo partly drawn) [Example 129] |  | ≥ 50 | ≥ 50 | ≥ 50 | > 500 |
| CC1=C(c2ccccc2)C(CC(O)C2CCN(C(=O)Nc3cccc(Cl)c3)CC2)n2cncc21 (stereo not drawn) [Example 181] |  | ≥ 50 | ≤ 50 | ≥ 50 | < 500 |
| CC1=C(c2ccccc2)C(CC(O)c2ccc(F)cc2)n2cncc21 (stereo not drawn) [Example 35, 1-(4-fluorophenyl)-2-(7-methyl-6-phenyl-5H-pyrrolo[1,2-c]imidazol-5-yl)ethan-1-ol] |  | ≥ 50 | ≥ 50 | ≤ 50 |  |
| CC1=C(c2cccc(F)c2)C(CC(O)c2ccccc2)n2cncc21 (stereo not drawn) [Example 16, 2-[6-(3-Fluoro-phenyl)-7-methyl-5H-pyrrolo[1,2-c]imidazol-5-yl]-1-phenyl-ethanol] | ≥ 50 | ≥ 50 |  | ≤ 50 |  |
| COc1ccc(C(=O)CC2C(c3ccccc3)=C(C)c3cncn32)cc1 (stereo not drawn) [Example 37, 1-(4-methoxyphenyl)-2-(7-methyl-6-phenyl-5H-pyrrolo[1,2-c]imidazol-5-yl)ethan-1-one] |  | ≥ 50 | ≥ 50 | ≥ 50 | < 500 |
| CC1=C(c2ccccc2)C(CC(=O)c2cccc(Cl)c2)n2cncc21 (stereo not drawn) [Example 17, 1-(3-Chloro-phenyl)-2-(7-methyl-6-phenyl-5H-pyrrolo[1,2-c]imidazol-5-yl)-ethanone] | ≥ 50 | ≥ 50 | ≥ 50 | ≥ 50 | < 500 |
| CC1=C(c2ccccc2)C(CC(=O)c2ccc(Oc3ccccc3F)cc2)n2cncc21 (stereo not drawn) [Example 76, 1-(4-(2-fluorophenoxy)phenyl)-2-(7-methyl-6-phenyl-5H-pyrrolo[1,2-c]imidazol-5-yl)ethan-1-one] |  | ≥ 50 | ≤ 50 | ≥ 50 | < 500 |
| COC(=O)[C@H]1CC[C@@H]([C@@H](O)CC2C(c3ccccc3)=C(C)c3cncn32)CC1 (stereo partly drawn) [Example 131] |  | ≥ 50 | ≥ 50 | ≥ 50 | < 500 |
| CC1=C(c2ccccc2)C(CC(=O)c2ccc(-c3ccccc3F)cc2)n2cncc21 (stereo not drawn) [Example 58] |  | ≥ 50 | ≤ 50 | ≥ 50 | < 500 |

Further lines, results first:

| inhibition at 10 µM [1] [%] | inhibition at 10 µM [2] [%] | inhibition at 1 µM [1] [%] | inhibition at 1 µM [2] [%] | IC50 [2] [nM] | SMILES |
| --- | --- | --- | --- | --- | --- |
|  | ≥ 50 | ≥ 50 | ≥ 50 |  | CC1=C(c2ccccc2)C(CC(O)C23CC4CC(CC(C4)C2)C3)n2cncc21 (stereo not drawn) [Example 108] |
| ≥ 50 | ≥ 50 | ≥ 50 | ≥ 50 | > 500 | CC1=C(c2ccccc2)C(CC(F)C2CCCCC2)n2cncc21 (stereo not drawn) [Example 168, 5-(2-Cyclohexyl-2-fluoro-ethyl)-7-methyl-6-phenyl-5H-pyrrolo[1,2-c]imidazole] |
|  | ≥ 50 | ≥ 50 | ≤ 50 |  | CC1=C(c2ccc(C)cc2)C(CC(O)C2CCCCC2)n2cncc21 (stereo not drawn) [Example 87, 1-Cyclohexyl-2-(7-methyl-6-(p-tolyl)-5H-pyrrolo[1,2-c]imidazol-5-yl)ethan-1-ol] |
|  | ≥ 50 | ≥ 50 | ≤ 50 |  | CC1=C(c2ccccc2)C(CC(=O)c2ccc(N(C)C)cc2)n2cncc21 (stereo not drawn) [Example 46, 1-(4-(dimethylamino)phenyl)-2-(7-methyl-6-phenyl-5H-pyrrolo[1,2-c]imidazol-5-yl)ethan-1-one] |
|  | ≥ 50 | ≥ 50 | ≤ 50 |  | CC1=C(c2ccccc2)C(CC(=O)C23CC4CC(CC(C4)C2)C3)n2cncc21 (stereo not drawn) [Example 107] |
|  | ≥ 50 | ≥ 50 | ≥ 50 |  | CC1=C(c2ccccc2)C(CC(=O)C2CCN(C(=O)Cc3ccccc3F)CC2)n2cncc21 (stereo not drawn) [Example 138, 2-(2-Fluorophenyl)-1-(4-(2-(7-methyl-6-phenyl-5H-pyrrolo[1,2-c]imidazol-5-yl)acetyl)piperidin-1-yl)ethan-1-one] |
|  | ≥ 50 | ≤ 50 | ≤ 50 |  | CC1=C(c2ccccc2)C(CC(O)CCC(=O)N2CCC(O)CC2)n2cncc21 (stereo not drawn) [Example 174, 4-Hydroxy-1-(4-hydroxypiperidin-1-yl)-5-(7-methyl-6-phenyl-5H-pyrrolo[1,2-c]imidazol-5-yl)pentan-1-one] |
|  | ≥ 50 | ≥ 50 | ≥ 50 | < 500 | CC1=C(c2ccccc2)C(CC(O)C2CCC(F)(F)CC2)n2cncc21 (stereo not drawn) [Example 184] |
| ≥ 50 | ≥ 50 | ≥ 50 | ≤ 50 | > 500 | CCCCC(O)CC1C(c2ccccc2)=C(C)c2cncn21 (stereo not drawn) [Example 170, 1-(7-Methyl-6-phenyl-5H-pyrrolo[1,2-c]imidazole-5-yl)-hexan-2-ol] |
|  | ≥ 50 | ≤ 50 | ≥ 50 | < 500 | CC1=C(c2ccccc2)C(CC(O)C2CCN(C(=O)NC3CCCCC3)CC2)n2cncc21 (stereo not drawn) [Example 179] |
|  | ≥ 50 | ≥ 50 | ≥ 50 | > 500 | CC1=C(c2ccccc2)C(CC(=O)c2ccc(Oc3ccccc3)cc2)n2cncc21 (stereo not drawn) [Example 48, 2-(7-methyl-6-phenyl-5H-pyrrolo[1,2-c]imidazol-5-yl)-1-(4-phenoxyphenyl)ethan-1-one] |
|  | ≤ 50 | ≤ 50 | ≤ 50 |  | O=C(CC1C(c2ccccc2)=C(c2ccccc2)c2cncn21)C1CCCCC1 (stereo not drawn) [Example 102] |
|  | ≥ 50 | ≥ 50 | ≥ 50 | < 500 | CC1=C(c2ccccc2)C(CC(=O)c2ccc(NC(=O)Cc3ccccc3F)cc2)n2cncc21 (stereo not drawn) [Example 176, 2-(2-fluorophenyl)-N-(4-(2-(7-methyl-6-phenyl-5H-pyrrolo[1,2-c]imidazol-5-yl)acetyl)phenyl)acetamide] |
|  | ≥ 50 | ≥ 50 | ≥ 50 | < 500 | CC1=C(c2ccccc2)C(C[C@H](O)C2CCC(C(=O)OC(C)(C)C)CC2)n2cncc21 (stereo in doubt) [Example 185] |
|  | ≥ 50 | ≥ 50 | ≥ 50 | < 500 | CC1=C(c2ccccc2)C(CC(=O)c2ccc(Cl)cc2)n2cncc21 (stereo not drawn) [Example 38, 1-(4-chlorophenyl)-2-(7-methyl-6-phenyl-5H-pyrrolo[1,2-c]imidazol-5-yl)ethan-1-one] |
|  | ≤ 50 | ≤ 50 | ≤ 50 |  | CC1=C(c2ccccc2)C(CC(O)C2CCN(C(=O)c3ccccn3)CC2)n2cncc21 (single isomer, unassigned) [Example 160] |
|  | ≥ 50 | ≥ 50 | ≥ 50 |  | CC1=C(c2ccccc2)C(CC(=O)c2cccc3ccccc23)n2cncc21 (stereo not drawn) [Example 40, 2-(7-methyl-6-phenyl-5H-pyrrolo[1,2-c]imidazol-5-yl)-1-(naphthalen-1-yl)ethan-1-one] |
